Test results: ChEMBL document CHEMBL4715852, “Advances in the Design of Genuine Human Tyrosinase Inhibitors for Targeting Melanogenesis and Related Pigmentations” (J Med Chem, 2020)
pIC50, pKi: −log10 of the molar value.

Legend:
Tyrosinase [1] = target: T1, Tyrosinase (Homo sapiens, UniProt P14679); assay: Inhibition of human tyrosinase expressed in HEK293 cells; assay type: cell-based
T1 sequence (P14679 whole entry): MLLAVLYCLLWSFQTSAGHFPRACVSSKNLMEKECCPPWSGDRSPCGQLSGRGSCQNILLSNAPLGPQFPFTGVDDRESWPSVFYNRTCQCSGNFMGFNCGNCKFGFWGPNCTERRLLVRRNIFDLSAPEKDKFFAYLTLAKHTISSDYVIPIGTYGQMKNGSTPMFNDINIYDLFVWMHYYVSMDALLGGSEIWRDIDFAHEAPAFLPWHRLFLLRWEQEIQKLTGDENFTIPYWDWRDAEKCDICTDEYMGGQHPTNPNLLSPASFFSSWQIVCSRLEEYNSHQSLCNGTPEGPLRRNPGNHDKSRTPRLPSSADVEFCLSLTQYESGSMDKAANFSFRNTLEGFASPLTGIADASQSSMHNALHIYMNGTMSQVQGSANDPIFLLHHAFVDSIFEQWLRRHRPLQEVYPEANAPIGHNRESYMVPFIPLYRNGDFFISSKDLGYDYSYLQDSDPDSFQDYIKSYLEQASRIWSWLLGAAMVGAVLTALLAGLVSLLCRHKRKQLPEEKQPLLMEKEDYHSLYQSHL

Tyrosinase [2] = target: T1, Tyrosinase; assay: Mixed inhibition of recombinant human tyrosinase expressed in baculovirus infected sf9 cells using L-DOPA as substrate by double-reciprocal plot analysis
Mushroom tyrosinase [3] = target: T2, Mushroom tyrosinase (Agaricus bisporus, UniProt O42713+Q00024+C7FF04+C7FF05)
Description: Competitive inhibition of White button mushroom tyrosinase using L-DOPA as substrate by Lineweaver-Burk plot

Tyrosinase [4] = target: T1, Tyrosinase; assay: Inhibition of human tyrosinase expressed in human SKMEL188 cell lysate using L- DOPA as substrate incubated for 8 hrs; assay type: subcellular, SK-MEL-188
Tyrosinase [5] = target: T1, Tyrosinase; assay: Inhibition of human tyrosinase using L- DOPA as substrate by MBTH based assay
Tyrosinase [6] = target: T1, Tyrosinase; assay: Inhibition of human tyrosinase expressed in HEK293 cells using L-tyrosine as substrate and DOPA as cofactor by indirect spectrophotometric method; assay type: cell-based
Tyrosinase [7] = target: T1, Tyrosinase; assay: Inhibition of human tyrosinase expressed in Escherichia coli
Tyrosinase [8] = target: T1, Tyrosinase; assay: Inhibition of tyrosinase in human melanocytes using L-[3,5-3H]-tyrosine as substrate incubated for 1 to 3 days by liquid scintillation counting method; assay type: cell-based, Melanocyte
Mushroom tyrosinase [9] = target: T2, Mushroom tyrosinase; assay: Inhibition of mushroom tyrosinase using L-tyrosine as substrate by spectrophotometric method
Tyrosinase [10] = target: T1, Tyrosinase; assay: biochemical
Description: Inhibition of human His-tagged tyrosinase expressed in HEK 293 cells using L-DOPA as substrate by MBTH based assay

Tyrosinase [11] = target: T1, Tyrosinase; assay: Inhibition of human His-tagged tyrosinase expressed in HEK 293 cells using L-DOPA as substrate by Lineweaver-Burk plot analysis; parameters: species or system HEK293
Tyrosinase [12] = target: T1, Tyrosinase; assay: Inhibition of tyrosinase in human melanocyte cells using L-DOPA as substrate by absorbance method; assay type: cell-based
Mushroom tyrosinase [13] = target: T2, Mushroom tyrosinase; assay: Inhibition of mushroom tyrosinase
Tyrosinase [14] = target: T1, Tyrosinase; assay: Inhibition of tyrosinase in neonatal human epidermal melanocytes; parameters: species or system Melanocyte
Tyrosinase [15] = target: T1, Tyrosinase; assay: Inhibition of tyrosinase in human neonatal foreskin epidermal melanocyte cells using L-tyrosine and L-DOPA as substrate preincubated for 2 days followed by cell lysis and subsequent substrate addition and measured after 3 hr by spectrophotometric method; assay type: cell-based
Tyrosinase [16] = target: T1, Tyrosinase; assay: Inhibition of tyrosinase in human neonatal foreskin epidermal melanocyte cells using L-DOPA as substrate preincubated for 24 hrs followed by cell lysis and subsequent substrate addition and measured after 1 hr by ELISA; assay type: cell-based
Tyrosinase [17] = target: T1, Tyrosinase; assay: Inhibition of human HMV-II cell derived tyrosinase using DOPA as substrate incubated for 5 mins by light absorbance method; parameters: species or system HMV-2 cell line
Tyrosinase [18] = target: T1, Tyrosinase; assay: Inhibition of human HMV-II cell derived tyrosinase using L-DOPA as substrate by light absorbance method; assay type: cell-based, HMV-2 cell line

For O=C(/C=C/c1ccc(O)cc1)OC1=C(O)C(=O)O[C@@H]1[C@H](O)CO, the pIC50 (Tyrosinase [1]) was 5.00.
O=C(O)c1ccccc1 [BENZOIC ACID] showed a pKi (Tyrosinase [2]) of 3.28 and a Ki (Mushroom tyrosinase [3]) of 4.6 µM.
For N[C@H](Cc1ccccc1)C(=O)O[C@H]1CC[C@H](c2ccc(O)cc2O)CC1, the pIC50 (Tyrosinase [4]) was 5.70.
O=C(Nc1nc(-c2ccc(O)cc2O)cs1)C1CCCCC1 showed a pIC50 (Tyrosinase [5]) of 5.34.
Compound Oc1ccc(/C=C/c2cc(O)cc(O)c2)cc1 [RESVERATROL] has a pIC50 (Tyrosinase [1]) of 5.05.
O=c1cc(-c2ccc(O)c(O)c2)oc2cc(O)cc(O)c12 [LUTEOLIN] gave a pIC50 (Tyrosinase [6]) of 4.22.
Work on O=c1cc(-c2ccc(O)c(O)c2)oc2cc(OS(=O)(=O)O)cc(O)c12 yielded a pIC50 (Tyrosinase [6]) of 4.80.
With CCCSCc1cc(=O)c(O)co1 the pKi (Tyrosinase [5]) was 4.57.
With O=C(Nc1nc(-c2ccc(O)cc2O)cs1)c1ccccc1 the pIC50 (Tyrosinase [5]) was 5.60.
O=c1oc2ccccc2cc1O [3-HYDROXYCOUMARIN] gave a pKi (Tyrosinase [7]) of 5.47.
CCCn1cc(O)c(=O)cc1C showed a pKi (Tyrosinase [5]) of 4.12.
CC(C)(C)c1ccc(O)cc1 was tested, and the pIC50 (Tyrosinase [8]) was 5.00.
For CCCCCCc1ccc(O)cc1O [HEXYLRESORCINOL], the IC50 (Mushroom tyrosinase [9]) was 1.2 µM, the pIC50 (Tyrosinase [10]) was 4.03 and the pKi (Tyrosinase [11]) was 4.41.
In the case of COc1cc(/C=C/C(=O)CC(=O)/C=C/c2ccc(O)c(OC)c2)ccc1O [CURCUMIN], the pIC50 (Tyrosinase [12]) was 5.30.
In the case of CC(c1ccccc1)c1ccc(O)cc1O (configuration not stated), the IC50 (Mushroom tyrosinase [9]) was 0.3 µM, the pIC50 (Tyrosinase [10]) was 3.88 and the pKi (Tyrosinase [11]) was 4.62.
Work on COc1ccc(CCCc2ccc(O)cc2O)c(OC)c1C yielded an IC50 (Mushroom tyrosinase [13]) of 0.24 µM.
Oc1cccc(O)c1 [RESORCINOL] gave a pIC50 (Tyrosinase [10]) of under 2.52.
With Oc1ccc(-c2csc(Nc3ncccn3)n2)c(O)c1 the pIC50 (Tyrosinase [5]) was 5.49.
Work on CC(C)SCc1cc(=O)c(O)co1 yielded a pKi (Tyrosinase [5]) of 4.30.
Compound O=C(O)/C=C/c1ccc(O)cc1 [COUMARIC ACID] has a pIC50 (Tyrosinase [14]) of 5.70 and a pIC50 (Tyrosinase [1]) of 5.70.
CC(C)C(=O)Nc1nc(-c2ccc(O)cc2O)cs1 was tested, and the pIC50 (Tyrosinase [10]) was 5.96 and the pKi (Tyrosinase [11]) was 6.60.
Compound O=C(Nc1nc(-c2ccc(O)cc2O)cs1)c1ccc(CO)cc1 has a pIC50 (Tyrosinase [5]) of 5.80.
O=C(O)c1ccc(Nc2nc(-c3ccc(O)cc3O)cs2)cc1 gave a pIC50 (Tyrosinase [5]) of 5.59.
Compound C=C1OC(=O)/C(=C\CCCCCCCCCCCCC)[C@H]1O has a pIC50 (Tyrosinase [15]) of 6.00.
For CC(C)(C)C(=O)Nc1nc(-c2ccc(O)cc2O)cs1, the pIC50 (Tyrosinase [5]) was 5.85.
With O=C(CCc1ccc(O)c(O)c1)c1c(O)cc(O)cc1O the pIC50 (Tyrosinase [16]) was 4.49.
For Oc1ccc2cc[nH]c2c1, the pIC50 (Tyrosinase [17]) was 4.66.
CSCc1cc(=O)c(O)co1 was tested, and the pKi (Tyrosinase [5]) was 4.34.
Compound CCCCCSCc1cc(=O)c(O)co1 has a pKi (Tyrosinase [5]) of 4.34.
For CCCCCCCCCCCCC/C=C1\C(=O)O[C@@](C)(OC)[C@@H]1O [SUBAMOLIDE A], the pIC50 (Tyrosinase [15]) was 6.00.
In the case of COc1cc(/C=C/C(=O)NCCc2ccc(O)c(O)c2)ccc1O [N-TRANS-FERULOYLDOPAMINE], the pIC50 (Tyrosinase [14]) was 4.30.
COc1cc(/C=C\C(=O)NCCCCNC(=O)/C=C/c2ccc(O)c(OC)c2)ccc1O gave a pIC50 (Tyrosinase [16]) of 4.07.
CC(=O)Nc1nc(-c2ccc(O)cc2O)cs1 gave a pIC50 (Tyrosinase [5]) of 5.49.
For O=C(/C=C/c1ccc(O)cc1)OC1=C(O)[C@@H]([C@H](O)CO)OC1=O, the pIC50 (Tyrosinase [1]) was 4.40.
CCCCc1ccc(O)cc1O [RUCINOL] was tested, and the pKi (Tyrosinase [11]) was 5.04 and the IC50 (Mushroom tyrosinase [13]) was 0.6 µM.
Nc1nc(-c2ccc(O)cc2O)cs1 gave a pIC50 (Tyrosinase [5]) of 4.29.
Work on CCCCn1cc(O)c(=O)cc1C yielded a pKi (Tyrosinase [5]) of 4.00.
For COC1=CC(=C/C=C/C=C2C=C(OC)C(=O)C(OC)=C2)C=C(OC)C1=O, the pIC50 (Tyrosinase [18]) was 5.60.
For CCSCc1cc(=O)c(O)co1, the pKi (Tyrosinase [5]) was 4.72.
